Experimental data from patent US6960606B2, “Adamantyl Thiazole Thioureas” (Parker Hughes Institute, priority 2000, dated 2005).
Like-named read-outs stand apart in the source and are kept apart here.

Experiments:
[1] = system: HIV-1 strain HTLVIIIB; experiment: Inhibition of HIV-1 HTLVIIIB replication in PBMC (p24 antigen EIA); type: cell-based; conditions: for IC50: HIV-1 HTLVIIIB in human PBMC, p24 on day 7, read-out: IC50 HTLVHIB
Experimental: (§1) Normal human peripheral blood mononuclear cells (PBMNC) from HIV-negative donors were cultured 72 hours in RPMI 1640 supplemented with 20% (v/v) heat-inactivated fetal bovine serum (FBS), 3% interleukin-2, 2 mM L-glutamine, 25 mM HEPES, 2 g/L NaHCO3, 50 μg/mL gentamicin, and 4 μg/mL phytohemagglutinin prior to exposure to the HIV-1 strain HTLVIIIB. The cells were then infected with virus at a multiplicity of infection (MOI) of 0.1 during a 1-hour adsorption period at 37° C. in a humidified 5% CO2 atm. Subsequently, cells were cultured in 96-well microtiter plates (100 μl/well; 2×10^6 cells/mL) in the presence of various inhibitor concentrations. Aliquots of culture supernatants were removed from the wells on the 7th day after infection for p24 antigen assays. The applied p24 enzyme immunoassay (EIA) was the unmodified kinetic assay commercially available from Coulter Corporation/Immunotech, Inc. (Westbrooke, Me.), which utilizes a murine mAb to HIV core protein coated onto microwell strips to which the antigen present in the test culture supernatant samples binds. Percent viral inhibition was calculated by comparing the p24 values from the test substance-treated infected cells with p24 values from untreated infected cells (i.e., virus controls). The effects of various treatments on cell viability were also examined and the results were expressed as the cytotoxic concentration (CC)50 values. The selectivity indices (SI) were calculated using the formula: SI=CC50/IC50.

[2] = system: NNRTI-resistant HIV-1 strain A17 with a Y181C mutation in RT; experiment: microbe, parasite or virus in culture; type: cell-based; conditions: for effective concentrations against NNRTI-resistant HIV-1 isolate A17 (in words): both NNRTI-resistant isolates
[3] = system: A17 variant with Y181C plus K103N mutations in RT; experiment: microbe, parasite or virus in culture; type: cell-based, HIV-1; conditions: for effective concentrations against NNRTI-resistant HIV-1 isolate A17 variant (in words): both NNRTI-resistant isolates
[4] = system: human peripheral blood mononuclear cells (PBMC); experiment: Cell viability / cytotoxicity in PBMC; type: cell-based; conditions: for CC50: cytotoxic concentration, PBMC viability
Experimental: as §1

[5] = Human immunodeficiency virus 1, 168 h
[6] = Human immunodeficiency virus 1, read-out: IC50 A17
[7] = Human immunodeficiency virus 1, read-out: IC50 A17 variant
[8] = NNRTI-resistant HIV, A17 (Y181C), read-out: IC50 A17
[9] = NNRTI-resistant HIV, A17 variant (Y181C plus K103N), read-out: IC50 A17 variant

Row | Compound | IC50 values, inhibition of HIV-1 replication (in words) [1] | IC50 [1] | CC50 [4] | IC50 [3, 9] | other results
1 | CC(C)Nc1cccnc1N1CCN(C(=O)c2cc3cc(NS(C)(=O)=O)ccc3[nH]2)CC1 [Delavirdine, reference compound] | – | – | – | – | IC50 [1, 5]: 9 nM; IC50 [2, 6]: 50 µM; IC50 [3, 7]: > 100 µM
2 | Cc1ccnc2c1NC(=O)c1cccnc1N2C1CC1 [Nevirapine, reference compound] | – | – | – | – | IC50 [1, 5]: 34 nM; IC50 [2, 6]: > 100 µM; IC50 [3, 7]: > 100 µM
3 | N-[1-(1-Adamantyl)methyl]-N′-[2-(thiazolyl)]thiourea [Compound 5] | subnanomolar | < 1 nM | 40 µM | – | IC50 [2, 8]: 0.6 µM; effective concentrations against NNRTI-resistant HIV-1 isolate A17 (in words) [2]: nanomolar to low micromolar; effective concentrations against NNRTI-resistant HIV-1 isolate A17 variant (in words) [3]: nanomolar to low micromolar
4 | N-[1-(1-Furoylmethyl)]-N′-[2-(thiazolyl)]thiourea [Compound 6] | subnanomolar | < 1 nM | > 100 µM | 0.6 µM | effective concentrations against NNRTI-resistant HIV-1 isolate A17 (in words) [2]: nanomolar to low micromolar; effective concentrations against NNRTI-resistant HIV-1 isolate A17 variant (in words) [3]: nanomolar to low micromolar; toxicity to PBMC (in words) [4]: minimally toxic
5 | N-[2-(1-Cyclohexenylethyl)]-N′-[2-(thiazolyl)]thiourea [Compound 2] | – | 7 nM | 4 µM | > 100 µM | IC50 [2, 8]: 0.9 µM
6 | N-[2-(2-Indole)ethyl]-N′-[2-(thiazolyl)]thiourea [Compound 8] | subnanomolar | < 1 nM | 28 µM | – | effective concentrations against NNRTI-resistant HIV-1 isolate A17 (in words) [2]: nanomolar to low micromolar; effective concentrations against NNRTI-resistant HIV-1 isolate A17 variant (in words) [3]: nanomolar to low micromolar
7 | N-[2-(2-Piperdine)ethyl]-N′-[2-(thiazolyl)]thiourea [Compound 9] | – | > 100000 nM | – | – | –
8 | N-[2-(2-Thiophenylethyl)]-N′-[2-(thiazolyl)]thiourea [Compound 1] | subnanomolar | < 1 nM | 71 µM | – | IC50 [2, 8]: > 100 µM
9 | N-[2-(4-Hydroxyphenyl)ethyl]-N′-[2-(thiazolyl)]thiourea [Compound 10] | – | > 100000 nM | – | – | –
10 | N-[2-(4-Methylphenyl)ethyl]-N′-[2-(thiazolyl)]thiourea [Compound 4] | – | 70 nM | > 100 µM | > 100 µM | –
11 | N-[2-(Phenoxyethyl)]-N′-[2-(thiazolyl)]thiourea [Compound 3] | subnanomolar | < 1 nM | > 100 µM | > 100 µM | –
12 | N-[2-Pyridylethyl]-N′-[2-(thiazolyl)]thiourea [Compound 11] | – | 1000 nM | 100 µM | – | –
13 | N-[3-(2-Imidazole)propyl]-N′-[2-(thiazolyl)]thiourea [Compound 7] | subnanomolar | < 1 nM | 35 µM | > 100 µM | IC50 [2, 8]: > 100 µM
14 | N-[3-(Pyrrolidinone)propyl]-N′-[2-(thiazolyl)]thiourea [Compound 12] | – | 9000 nM | 18 µM | – | –
